Experimental data published in US8623661B2, “Iron chelating agent, method for producing same, method for determining amount of iron ions and method for trapping iron ions” (National University Corporation Asahikawa Medical College, priority 2008, dated 2014).

Legend:
[1] = tested on: iron citrate complex ammonium salt (FAC); test: Evaluation C: chelating ability in MOPS/acetonitrile solvent, FAC solution; assay type: binding
Method: Evaluation was carried out by the following evaluation method C as to whether or not the iron chelating agent according to Examples 1 to 3 had chelating ability with iron in 3-morpholinopropanesulfonic acid (C7H15NO4S;MOPS) and acetonitrile solution as solvents used in high performance liquid chromatography (HPLC).
2.09 g of morpholinopropanesulfonic acid (C7H15NO4S; FW=209.26, Code 341-01801, Lot PX013, manufactured by Dojindo/Wako Corporation) was added to a 100 mL Erlenmeyer flask, 80 mL of ultrapure water (pure water produced by an ultrapure water production system manufactured by Millipore Corporation (Milli-Q); “Milli-Q water”) was added thereto and dissolved [pH 4.15 (24.4° C.)]. To this solution, 1N sodium hydroxide solution (1 mol/1 sodium hydroxide solution, Code 192-02175, Lot SEP7274, manufactured by Wako Pure Chemicals Industries) was added in 100 μl portions, the pH was adjusted to 7.0 and further Milli-Q water was made up to 100 mL in a measuring cylinder, whereby 100 mL of MOPS solution (pH 6.99) was prepared.
An iron chelating agent solution having an iron chelating agent concentration of 50 mM was prepared with respect to the iron chelating agent according to Examples 1 to 3, in the same manner as the preparation method of the iron chelating solution in evaluation A of the iron chelating agent.
Further, 100 mM of MOPS solution (pH6.99) prepared by the preparation method of the MOPS solution was used.
Furthermore, a stock solution of acetonitrile (C2H3N, FW=41.05, Code 347-06641, Lot WPI96, manufactured by Dojindo/Wako corporation) was used.
13.8 mL of Milli-Q water was taken in a 50 mL conical tube, 1.2 mL of each of the iron chelating agent solutions (Fe-Ser•Na (50 mM), Fe-His•Na (50 mM), Fe-Glu•Na (50 mM)) according to the iron chelating agents of Examples 1 to 3 was added, 1.0 mL of 100 mM MOPS solution was added thereto, and a further 4.0 mL of acetonitrile solution was added to produce an iron chelating solution using MOPS. The iron chelating agent solutions using MOPS and iron chelating agent according to Examples 1 to 3 were defined respectively as Fe-Ser•Na (MOPS solution)” (iron chelating agent according to
Example 1), “Fe-His•Na (MOPS solution)” (iron chelating agent according to Example 2), and “Fe-Glu•Na(MOPS solution)” (iron chelating agent according to Example 3).
An iron citrate complex ammonium salt solution (FAC solution (20 mM)) having a concentration of iron ions of 20 mM and an iron citrate complex ammonium salt solution (FAC solution (2 mM)) having a concentration of iron ions of 2 mM were prepared, in the same manner as the preparation method of the iron citrate complex ammonium solution in evaluation A of the iron chelating agent.
FAC solution (20 mM) was added to and mixed with each of the iron chelating agent solutions [Fe-Ser•Na (MOPS solution), Fe-His•Na (MOPS solution), Fe-Glu•Na (MOPS solution)] using MOPS.

[2] = target: T1, transferrin iron complex (holo-Transferrin (hTf), human) (Homo sapiens, UniProt P02787); test: Evaluation D: capture of iron ions from transferrin iron complex; assay type: binding
T1 construct: purchased Sigma Corporation T0665-50MG
T1 sequence (P02787 20-698, one chain of several): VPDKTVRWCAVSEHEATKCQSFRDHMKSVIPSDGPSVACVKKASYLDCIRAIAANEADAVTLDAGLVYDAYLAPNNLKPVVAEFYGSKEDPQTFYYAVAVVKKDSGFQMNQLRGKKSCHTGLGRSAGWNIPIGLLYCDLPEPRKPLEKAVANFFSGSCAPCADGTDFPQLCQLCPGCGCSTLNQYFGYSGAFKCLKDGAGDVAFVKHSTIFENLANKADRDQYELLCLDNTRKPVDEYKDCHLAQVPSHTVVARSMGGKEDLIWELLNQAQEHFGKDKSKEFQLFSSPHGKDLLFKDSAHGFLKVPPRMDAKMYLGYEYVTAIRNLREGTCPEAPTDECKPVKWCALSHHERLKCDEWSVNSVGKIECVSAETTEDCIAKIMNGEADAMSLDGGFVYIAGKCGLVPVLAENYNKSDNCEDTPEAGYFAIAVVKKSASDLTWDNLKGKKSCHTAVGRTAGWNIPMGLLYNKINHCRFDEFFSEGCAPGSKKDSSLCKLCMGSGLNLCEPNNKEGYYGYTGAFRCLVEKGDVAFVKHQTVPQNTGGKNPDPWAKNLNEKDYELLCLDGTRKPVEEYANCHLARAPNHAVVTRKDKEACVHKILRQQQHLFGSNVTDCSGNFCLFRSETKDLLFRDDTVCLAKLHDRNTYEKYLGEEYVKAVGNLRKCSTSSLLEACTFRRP
Method: Evaluation was carried out by the following evaluation method D with respect to properties whether iron ions were captured from the transferrin iron complex (transferrin iron complex in which transferrin is chelated to iron ions) by the iron chelating agent according to Examples 1 to 2.
The iron chelating agent according to Example 1 was dissolved in 1×D-PBS (pH 7.2) to prepare an iron chelating agent solution (“Fe-Ser•Na (5 mM)”) having an iron chelating agent concentration of 5 mM, in the same manner as the preparation method of the iron chelating agent in evaluation A of the iron chelating agent.
Further, as described above, the iron chelating agent according to Example 2 was dissolved in 1×D-PBS (pH 7.2) to prepare an iron chelating agent solution (“Fe-His•Na (5 mM)”) having an iron chelating agent concentration of 5 mM.
Further, 800 mM HEDTA solution as the iron chelating agent according to Comparative Example 3 was prepared as described above. 13.76 g of crystals were taken in a 50 mL conical tube, 25 mL of Milli-Q water was added and dissolution performed, and then adjustment to pH 7.0 was performed using concentrated hydrochloric acid (35 to 37%) and the total amount was adjusted to 50 mL using Milli-Q water (HEDTA solution (800 mM)). HEDTA solution (“HEDTA solution (5 mM)”) having a concentration of HEDTA of 5 mM was prepared using 1×D-PBS (pH 7.2).
Further, 800 mM solution (pH 7.0) was prepared by using NTA2Na and NTA3Na as iron chelating agents according to Comparative Example 1 as described above. 9.4 g of NTA2Na was dissolved in Milli-Q water and the total volume was made up to 50 mL (referred to as “NTA2Na solution (800 mM)” in some cases). Meanwhile, 11.0 g of NTA3Na was dissolved in Milli-Q water and the total volume was made up to 50 mL (“NTA3Na solution (800 mM)”). NTA2Na solution (800 mM) (pH 6.3) and NTA3Na solution (800 mM) (pH 11.3) were mixed to produce 800 mM of NTA solution with pH 7.0. NTA solution (“NTA solution (5 mM)”) having a concentration of NTA of 5 mM was prepared by using 1×D-PBS (pH 7.2).
A commercially available transferrin iron complex (holo-Transferrin (hTf), human, Code T0665-50MG, Lot 095K1633, manufactured by Sigma Corporation) was dissolved in 1×D-PBS (pH 7.2) to prepare a transferrin iron complex solution having a concentration of iron ions (iron ions which are transferrin-bound iron) of 50 μM.
50 μl of 50 μM transferrin iron complex solution was taken in a 1.5 mL sample tube, 50 μl of each of iron chelating agent solutions (Fe-Ser•Na (5 mM), Fe-His•Na (5 mM), NTA solution (5 mM), HEDTA solution (5 mM)) was added thereto and left at room temperature under light shielding for 24 hours. 50 μl of various reaction liquids was taken in a centrifugal ultrafiltration unit (trade name “Amicon Ultra-4 Ultracel-30k” UFC8030, manufactured by Millipore Corporation), and 450 μl of 1×D-PBS (pH 7.2) was added thereto, centrifugation was carried out at 3,500 rpm and 20° C. for 30 minutes, and transferrin and each low molecular chelating agents were separated (first time). After centrifugation, the filtrate was discarded. 450 μl of 1×D-PBS (pH 7.2) was added again to the solution (about 50 μl) containing transferrin concentrated in a unit and centrifugation was carried out with the same conditions (second time). A solution containing transferrin concentrated in a unit was recovered after the second time of centrifugation and the absorbance at the wavelength of 466 nm was measured using a spectrophotometer (trade name “Spectrophotometer DU 640”, manufactured by Beckman Coulter).

SMILES: O=C(O)C(CO)NCc1ccccc1O (stereo not drawn) [Example 1, o-[(1-carboxy-2-hydroxyethyl)-amino-methyl]-phenol]
- colour of the solution after mixing ([1]; FAC solution (2 mM) added to chelating agent MOPS solution (MOPS, acetonitrile)): dark brown-colored
- colour of the solution after mixing ([1]; FAC solution (20 mM) added to chelating agent MOPS solution (MOPS, acetonitrile)): dark brown-colored
- capture of iron ions from the transferrin iron complex ([2]; conclusion from Table 5): does not remove iron ions of the transferrin iron complex
- change of absorbance (wavelength 466 nm) after addition to the transferrin iron complex solution ([2]; conclusion from Table 5): increased
- hTf residual ratio (%) ([2]; relative to non-treated holo-Transferrin, 24 hours with 5 mM chelator solution): 104.32%
- Absorbance (466 nm) ([2]; transferrin fraction after 24 hours at room temperature with 5 mM chelator solution and 50 μM transferrin iron complex solution, ultrafiltration): 0.0772
